Results published in patent publication US20050070527A1, “Quinoxaline compounds” (priority 2003, published 2005).
Read-outs that look alike come from different tables or passages of the source.

Assays:
[1] = molecular target: T1, human histamine H4 receptor (Homo sapiens, UniProt Q9H3N8); assay: Binding assay on recombinant human histamine H4 receptor (3H-histamine displacement)
T1 construct: expressed in transfected cells; host or cells: SK-N-MC cells or COS7 cells, transiently transfected; membrane preparation
Method: Binding Assay on Recombinant Human Histamine H4 Receptor
SK-N-MC cells or COS7 cells were transiently transfected with pH4R and grown in 150 cm^2 tissue culture dishes. Cells were washed with saline solution, scraped with a cell scraper and collected by centrifugation (1000 rpm, 5 min). Cell membranes were prepared by homogenization of the cell pellet in 20 mM Tris-HCl with a polytron tissue homogenizer for 10 s at high speed. Homogenate was centrifuged at 1000 rpm for 5 min at 4° C. The supernatant was then collected and centrifuged at 20,000× g for 25 min at 4° C. The final pellet was resuspended in 50 mM Tris-HCl. Cell membranes were incubated with ^3H-histamine (5-70 nM) in the presence or absence of excess histamine (10000 nM). Incubation occurred at room temperature for 45 min. Membranes were harvested by rapid filtration over Whatman GF/C filters and washed 4 times with ice-cold 50 mM Tris HCl. Filters were then dried, mixed with scintillant and counted for radioactivity. SK-N-MC or COS7 cells expressing human histamine H4 receptor were used to measure the affinity of binding of other compounds and their ability to displace ^3H-ligand binding by incubating the above-described reaction in the presence of various concentrations of inhibitor or compound to be tested.

[2] = system: Mast cells; assay: Mast cell chemotaxis assay (histamine-induced, transwell); assay type: cell-based; conditions: 10 μM histamine, 3 h at 37° C.
Method: Mast Cell Chemotaxis Assay
In addition, it is known that mast cell numbers increase in a number of inflammatory conditions. Some of this is due to chemotaxis of mast cells to the sites of inflammation. This chemotaxis to specific agents can be mimicked in vitro. Transwells (Costar, Cambridge, Mass.) of a pore size 8 μm were coated with 100 μL of 100 ng/mL human fibronectin (Sigma) for 2 h at room temperature. After removal of the fibronectin, 600 μL of RPMI with 5% BSA, in the presence of 10 μM histamine, was added to the bottom chamber. To test the various histamine receptor (HR) antagonists, 10 μM and/or 1 μM solutions of the test compounds were added to the top and bottom chambers. Mast cells (2×10^5/well) were added to the top chamber. The plates were incubated for 3 h at 37° C. Transwells were removed and the cells in the bottom chamber were counted for sixty seconds using a flow cytometer.

[3] = system: human eosinophils; assay: Inhibition of eosinophil shape change (gated autofluorescence forward scatter assay); conditions: for effect on histamine-induced shape change: antagonist, human eosinophils; for Fold Change (eosinophil shape change): 10 μM antagonist
[4] = system: human eosinophils; conditions: cited from earlier work
[5] = Table 1, competition with 3H-histamine, Cheng-Prusoff, KD 5 nM, ligand 5 nM, read-out: Ki

T1 sequence (Q9H3N8 whole entry): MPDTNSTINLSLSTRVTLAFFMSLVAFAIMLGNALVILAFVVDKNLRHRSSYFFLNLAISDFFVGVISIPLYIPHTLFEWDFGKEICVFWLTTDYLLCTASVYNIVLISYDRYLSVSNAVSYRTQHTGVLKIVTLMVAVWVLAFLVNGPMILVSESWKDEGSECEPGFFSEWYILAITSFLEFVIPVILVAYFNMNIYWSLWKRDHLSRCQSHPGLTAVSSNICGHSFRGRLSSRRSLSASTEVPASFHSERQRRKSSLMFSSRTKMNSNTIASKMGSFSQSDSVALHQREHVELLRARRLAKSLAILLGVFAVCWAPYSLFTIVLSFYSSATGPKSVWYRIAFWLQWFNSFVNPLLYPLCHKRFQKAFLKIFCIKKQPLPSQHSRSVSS

3-(3-Methyl-piperazin-1-yl)-6-trifluoromethyl-1H-quinoxalin-2-one; and 3-(3-Methyl-piperazin-1-yl)-7-trifluoromethyl-1H-qui noxalin-2-one [Example 28]
Ki [1, 5]: 0.743 µM

3-(4-Methyl-piperazin-1-yl)-6-trifluoromethyl-1H-qui noxalin-2-one; and 3-(4-Methyl-piperazin-1-yl)-7-trifluoromethyl-1H-quinoxalin-2-one [Example 11]
Ki [1, 5]: 0.011 µM

3-piperazin-1-yl-6-trifluoromethyl-1H-quinoxalin-2-one; and 3-piperazin-1-yl-7-trifluoromethyl-1H-quinoxalin-2-one [Example 24]
Ki [1, 5]: 0.467 µM

6-Chloro-3-(3-methyl-piperazin-1-yl)-1H-quinoxalin-2-one; and 7-Chloro-3-(3-methyl-piperazin-1-yl)-1H-quinoxalin-2-one [Example 27]
Ki ([1]; read-out: Ki): 0.467 µM

6-Chloro-3-(4-methyl-piperazin-1-yl)-1H-quinoxalin-2-one; and 7-Chloro-3-(4-methyl-piperazin-1-yl)-1H-quinoxalin-2-one [Example 8]
Ki ([1]; read-out: Ki): 0.021 µM

6-Chloro-7-fluoro-3-(4-methyl-piperazin-1-yl)-1H-quinoxalin-2-one; and 7-Chloro-6-fluoro-3-(4-methyl-piperazin-1-yl)-1H-quinoxalin-2-one [Example 25]
Ki [1, 5]: 0.012 µM
Ki ([1]; repeated in the mast cell chemotaxis table, read-out: Binding Assay Ki): 0.012 µM
% Inh ([2]; HR antagonist 1 μM): 81%
% Inh ([2]; HR antagonist 10 μM): 79%

7-Chloro-3-piperazin-1-yl-1H-quinoxalin-2-one; and 6-Chloro-3-piperazin-1-yl-1H-quinoxalin-2-one [Example 26]
Ki ([1]; read-out: Ki): 0.152 µM

7-Chloro-6-methyl-3-(4-methyl-piperazin-1-yl)-1H-quinoxalin-2-one; and 6-Chloro-7-methyl-3-(4-methyl-piperazin-1-yl)-1H-quinoxalin-2-one [Example 18]
Ki [1, 5]: 0.112 µM

CN1CCN(C(=O)c2cc3cc(Cl)ccc3[nH]2)CC1 [(5-chloro-1H-indol-2-yl)-(4-methyl-piperazin-1-yl)-methanone]
IC50 ([3]; Homo sapiens, Eosinophil, read-out: IC50, inhibition of histamine-induced eosinophil shape change): 0.27 µM

Cc1cccc2nc(N3CCN(C)CC3)c(=O)[nH]c12 [Example 1, 8-Methyl-3-(4-methyl-piperazin-1-yl)-1H-quinoxalin-2-one]
Ki ([1]; read-out: Ki): 0.006 µM
% Inh ([2]; HR antagonist 1 μM): 76%

Cc1cccc2nc(N3CCNCC3)c(=O)[nH]c12 [Example 2, 8-Methyl-3-piperazin-1-yl-1H-quinoxalin-2-one]
Ki ([1]; read-out: Ki): 0.016 µM
% Inh ([2]; HR antagonist 1 μM): 50%

O=c1[nH]c2c([N+](=O)[O-])cccc2nc1N1CCNCC1 [Example 3, 8-Nitro-3-piperazin-1-yl-1H-quinoxalin-2-one]
Ki [1, 5]: 0.64 µM

O=c1[nH]c2c(F)c(F)ccc2nc1N1CCNCC1 [Example 4, 7,8-Difluoro-3-piperazin-1-yl-1H-quinoxalin-2-one]
Ki [1, 5]: 0.43 µM

Cc1cccc2nc(N3CCNC(C)C3)c(=O)[nH]c12 (stereo not drawn) [Example 5, 8-Methyl-3-(3-methyl-piperazin-1-yl)-1H-quinoxalin-2-one]
Ki ([1]; read-out: Ki): 0.04 µM

CC1CN(c2nc3ccccc3[nH]c2=O)CCN1 (stereo not drawn) [Example 6, 3-(3-Methyl-piperazin-1-yl)-1H-quinoxalin-2-one]
Ki [1, 5]: 0.681 µM

Cc1cccc2nc(N3CCN(CCO)CC3)c(=O)[nH]c12 [Example 7, 3-[4-(2-Hydroxy-ethyl)-piperazin-1-yl]-8-methyl-1H-quinoxalin-2-one]
Ki [1, 5]: 0.852 µM

CN1CCN(c2nc3cc(Cl)ccc3[nH]c2=O)CC1 [Example 9, 6-Chloro-3-(4-methyl-piperazin-1-yl)-1H-quinoxalin-2-one]
Ki ([1]; read-out: Ki): 0.084 µM

CN1CCN(c2nc3ccc(Cl)cc3[nH]c2=O)CC1 [Example 10, 7-Chloro-3-(4-methyl-piperazin-1-yl)-1H-quinoxalin-2-one]
Ki ([1]; read-out: Ki): 0.031 µM

CN1CCN(c2nc3cc(C(F)(F)F)ccc3[nH]c2=O)CC1 [Example 12, 3-(4-Methyl-piperazin-1-yl)-6-trifluoromethyl-1H-quinoxalin-2-one]
Ki [1, 5]: 0.024 µM
% Inh ([2]; HR antagonist 1 μM): 99%

CN1CCN(c2nc3ccc(C(F)(F)F)cc3[nH]c2=O)CC1 [Example 13, 3-(4-Methyl-piperazin-1-yl)-7-trifluoromethyl-1H-quinoxalin-2-one]
Ki [1, 5]: 0.019 µM

CN1CCN(c2nc3cc(Cl)c(Cl)cc3[nH]c2=O)CC1 [Example 14, 6,7-Dichloro-3-(4-methyl-piperazin-1-yl)-1H-quinoxalin-2-one]
Ki [1, 5]: 0.032 µM
% Inh ([2]; HR antagonist 1 μM): 71%
% Inh ([2]; HR antagonist 10 μM): 80%

O=c1[nH]c2cc(Cl)c(Cl)cc2nc1N1CCNCC1 [Example 15, 6,7-Dichloro-3-piperazin-1-yl-1H-quinoxalin-2-one]
Ki ([1]; read-out: Ki): 0.056 µM

CN1CCCN(c2nc3cc(Cl)c(Cl)cc3[nH]c2=O)CC1 [Example 16, 6,7-Dichloro-3-(4-methyl-[1,4]diazepan-1-yl)-1H-quinoxalin-2-one]
Ki [1, 5]: 1.61 µM

CN1CCN(c2nc3cc(F)c(F)cc3[nH]c2=O)CC1 [Example 17, 6,7-Difluoro-3-(4-methyl-piperazin-1-yl)-1H-quinoxalin-2-one]
Ki [1, 5]: 0.074 µM

Cc1cc2nc(N3CCN(C)CC3)c(=O)[nH]c2cc1Cl [Example 19, 7-Chloro-6-methyl-3-(4-methyl-piperazin-1-yl)-1H-quinoxalin-2-one]
Ki [1, 5]: 0.093 µM

Cc1cc2[nH]c(=O)c(N3CCN(C)CC3)nc2cc1Cl [Example 20, 6-Chloro-7-methyl-3-(4-methyl-piperazin-1-yl)-1H-quinoxalin-2-one]
Ki [1, 5]: 0.083 µM

CN1CCN(c2nc3cc(F)ccc3[nH]c2=O)CC1 [Example 21, 6-Fluoro-3-(4-methyl-piperazin-1-yl)-1H-quinoxalin-2-one]
Ki ([1]; read-out: Ki): 0.039 µM

CN1CCN(c2nc3ccc(F)c(F)c3[nH]c2=O)CC1 [Example 22, 7,8-Difluoro-3-(4-methyl-piperazin-1-yl)-1H-quinoxalin-2-one]
Ki [1, 5]: 0.03 µM

CN1CCN(c2nc3cc(C(F)(F)F)cc(Cl)c3[nH]c2=O)CC1 [Example 23, 8-Chloro-3-(4-methyl-piperazin-1-yl)-6-trifluoromethyl-1H-quinoxalin-2-one]
Ki [1, 5]: 0.166 µM

C[C@@H](N)Cc1c[nH]cn1 [R-α-methylhistamine]
activation of calcium mobilization [4]: activate calcium mobilization
potency relative to histamine in calcium mobilization [4]: significantly less potent than histamine

CN(C)CCOC(c1ccccc1)c1ccccc1 [diphenhydramine]
effect on histamine-induced shape change [3]: did not alter
Fold Change (eosinophil shape change) ([3]; histamine 0 μM): 1.00
Fold Change (eosinophil shape change) ([3]; histamine 0.01 μM): 1.03
Fold Change (eosinophil shape change) ([3]; histamine 0.1 μM): 1.18
Fold Change (eosinophil shape change) ([3]; histamine 1 μM): 1.50
Fold Change (eosinophil shape change) ([3]; histamine 10 μM): 1.63

NCCc1c[nH]cn1 [histamine]
activation of calcium mobilization [4]: activate calcium mobilization
shape change in eosinophils (agonist effect) ([3]; histamine alone, 0.01-10 μM): induces a dose-dependent shape change

CNC(=C[N+](=O)[O-])NCCSCc1ccc(CN(C)C)o1 [ranatidine]
effect on histamine-induced shape change [3]: did not alter
Fold Change (eosinophil shape change) ([3]; histamine 0 μM): 1.00
Fold Change (eosinophil shape change) ([3]; histamine 0.01 μM): 1.04
Fold Change (eosinophil shape change) ([3]; histamine 0.1 μM): 1.21
Fold Change (eosinophil shape change) ([3]; histamine 1 μM): 1.49
Fold Change (eosinophil shape change) ([3]; histamine 10 μM): 1.64

S=C(NC1CCCCC1)N1CCC(c2cnc[nH]2)CC1 [thioperamide]
blockade of calcium mobilization responses ([4]; responses to histamine and R-α-methylhistamine): blocked
